One assay has as its system E. Coli NCTC 12241. In kind it is cell-based. Here is the method:
(§1) Minimum inhibitory concentration (MIC) was determined by broth microdilution according to CLSI guidelines. Blood agar plates were inoculated with glycerol stocks of Escherichia coli ATCC 25922, E. coli ATCC 25922 MCR-1, E. coli MCR-1 (clinical isolate from Utrecht Medical Center, NL), E. coli EQAS MCR-2 (clinical isolate from Wageningen University and Research, NL), Kiebsielia pneumoniae ATCC 11228, K. pneumoniae ATCC 13883, K. pneumonia 2048 (clinical isolate from Vrije Universiteit Amsterdam Medical Center, NL), K. pneumonia JS-123 (clinical isolate from Utrecht Medical Center, NL), Acinetobacter baumannii ATCC 17961, A. baumannil ATCC 17978, A. baumannii 2018-006 (clinical isolate from Rijksinstituut voor Volksgezondheid en Milieu, NL), A. baumannii MDR (clinical isolate from Vrije Universiteit Amsterdam Medical Center, NL), Pseudomonas aeruginosa ATCC 27853, P. aeruginosa PAO1, P. aeruginosa NRZ-03961 (Reference strain from Das Nationale Referenzzentrum für gramnegative Krankenhauserreger, DE), P. aeruginosa M-120 (clinical isolate from Leiden University Medical Center, NL) and Staphylococcus aureus USA300 (clinical isolate from Texas Children's Hospitalm, USA). E. coli 25922 MCR1 was grown on LB agar supplemented with kanamycin. The inoculated agar plates were then incubated for 16 hours at 37° C. Individually grown colonies were subsequently used to inoculate 3 mL aliquots of TSB that were then incubated at 37° C. with shaking at 220 rpm. In parallel, the compounds to be assessed were serially diluted with Mueller-Hinton broth (MHB) in polypropylene 96-well plates (50 μL in each well). Once the OD600 of the bacterial suspensions reached 0.5, the bacteria were diluted with MHB (final concentration 2×10^5 CFU mL^−1) and added to the microplates containing the test compounds (50 μL to each well, final volume: 100 μL). The well-plates were sealed with an adhesive membrane and after 16 hours of incubation at 37° C. with shaking at 220 rpm the wells were visually inspected for bacterial growth. MIC values were defined as the lowest concentration of the compound that prevented visible growth of bacteria.
were tested for inhibition of E. Coli NCTC 12241.

The subject of a further assay is E. coli. In kind it is cell-based. How it is done:
as §1
MIC values were determined for the lipid analogues of brevicidine.
MIC values were determined for the position 9 analogues of linear brevicidine.

In assay [1] the test system is Escherichia coli ATCC 25922. In kind it is cell-based. The following applies: ATCC 25922. The essentials:
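Broth microdilution in MHB per CLSI; inoculum 2×10^5 CFU mL^−1 from log-phase TSB cultures at OD600 0.5. Plates incubated 16 hours at 37° C with shaking at 220 rpm. MIC is the lowest concentration preventing visible growth.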

The subject of the next assay is K. pneumoniae ATCC 11228. In kind it is cell-based, Klebsiella pneumoniae. The settings on record: ATCC 11228. How it is done: as §1
The next assay concerns A. baumannii ATCC 17978. The class given is cell-based, Acinetobacter baumannii. The following applies: ATCC 17978. Here is the method:
as §1

A further assay has as its system P. aeruginosa PAO1. The class given is cell-based, Pseudomonas aeruginosa. The following applies: PAO1. How it is done:
as §1

Values after ≈ are worked out from the molar mass of the structure shown. Positions of bridges follow the written chain, without caps; N, C: chain ends. Non-standard residues stand in square brackets, D forms with d. Residues, ends and D or L forms follow the SMILES beside them. ξ: configuration not given here. *: point of attachment. Palmitoyl = CCCCCCCCCCCCCCCC(=O)*; Hexanoyl(4ξ-Me) = CCC(C)CCC(=O)*; Myristoyl = CCCCCCCCCCCCCC(=O)*; Decanoyl = CCCCCCCCCC(=O)*; dOrn = NCCC[C@@H](N)C(=O)O; Octanoyl = CCCCCCCC(=O)*; Orn = NCCC[C@H](N)C(=O)O; Dap = NC[C@H](N)C(=O)O; Alloc = C=CCOC(=O)*; Butyryl = CCCC(=O)*

For the compound `C=CCOC(=O)NC[C@H](NC(=O)[C@H](Cc1c[nH]c2ccccc12)NC(=O)[C@@H](CCCN)NC(=O)CNC(=O)[C@H](CCCN)NC(=O)[C@@H](CCCN)NC(=O)[C@@H](Cc1c[nH]c2ccccc12)NC(=O)[C@@H](Cc1ccc(O)cc1)NC(=O)[C@@H](CC(N)=O)NC(=O)CCCCCCC)C(=O)N[C@H](C(=O)NCC(=O)O)[C@@H](C)CC` [Oct- Dap(Alloc) OH] (Octanoyl-[dN][dY][dW][dOrn][Orn]G[dOrn]W[Dap](Alloc)IG-OH), the “E. coli MIC” value in the assay on E. Coli NCTC 12241 is 12.5 µg/mL.

In the case of `CCC(C)CCC(=O)N[C@H](CC(N)=O)C(=O)N[C@H](Cc1ccc(O)cc1)C(=O)N[C@H](Cc1c[nH]c2ccccc12)C(=O)N[C@H](CCCN)C(=O)N[C@@H](CCCN)C(=O)NCC(=O)N[C@H](CCCN)C(=O)N[C@@H](Cc1c[nH]c2ccccc12)C(=O)N[C@@H](CN)C(=O)N[C@H](C(=O)NCC(N)=O)[C@@H](C)CC` (stereo partly drawn) [Und(9-Dap)-NH2] ({Hexanoyl(4ξ-Me)}-[dN][dY][dW][dOrn][Orn]G[dOrn]W[Dap]IG-NH2), the “E. coli MIC” value in the assay on E. coli and with E. Coli NCTC 12241 was 3.1 µg/mL in each case.

For `C=CCOC(=O)NC[C@H](NC(=O)[C@H](Cc1c[nH]c2ccccc12)NC(=O)[C@@H](CCCN)NC(=O)CNC(=O)[C@H](CCCN)NC(=O)[C@@H](CCCN)NC(=O)[C@@H](Cc1c[nH]c2ccccc12)NC(=O)[C@@H](Cc1ccc(O)cc1)NC(=O)[C@@H](CC(N)=O)NC(=O)CCCCCCC)C(=O)N[C@H](C(=O)NCC(N)=O)[C@@H](C)CC` [Oct Dap(Alloc) NH2] (Octanoyl-[dN][dY][dW][dOrn][Orn]G[dOrn]W[Dap](Alloc)IG-NH2), the “E. coli MIC” value in the assay on E. Coli NCTC 12241 was determined as 0.4 µg/mL.

Take `C=CCOC(=O)NC[C@H](NC(=O)[C@H](Cc1c[nH]c2ccccc12)NC(=O)[C@@H](CCCN)NC(=O)CNC(=O)[C@H](CCCN)NC(=O)[C@@H](CCCN)NC(=O)[C@@H](Cc1c[nH]c2ccccc12)NC(=O)[C@@H](Cc1ccc(O)cc1)NC(=O)[C@@H](CC(N)=O)NC(=O)CCC(C)CC)C(=O)N[C@H](C(=O)NCC(N)=O)[C@@H](C)CC` (stereo partly drawn) [MeHex- Dap(Alloc) NH2] ({Hexanoyl(4ξ-Me)}-[dN][dY][dW][dOrn][Orn]G[dOrn]W[Dap](Alloc)IG-NH2): the “E. coli MIC” value with E. Coli NCTC 12241 was determined as 0.19 µg/mL.

As for `CC[C@H](C)[C@@H]1NC(=O)[C@@H](NC(=O)[C@H](Cc2c[nH]c3ccccc23)NC(=O)[C@@H](CCCN)NC(=O)CNC(=O)[C@H](CCCN)NC(=O)[C@@H](CCCN)NC(=O)[C@@H](Cc2c[nH]c3ccccc23)NC(=O)[C@@H](Cc2ccc(O)cc2)NC(=O)[C@H](N)CO)[C@@H](C)OC(=O)CNC(=O)CNC(=O)[C@H](CC(N)=O)NC1=O` [NH2] (H-[dS][dY][dW][dOrn][Orn]G[dOrn]WTINGG; ester 9-C), the “Minimum inhibitory concentration (MIC)” value in assay [1] was 32 µg/mL (≈ 21.8 µM); in the assay on K. pneumoniae ATCC 11228, above 64 µg/mL; in the assay with A. baumannii ATCC 17978, above 64 µg/mL; in the assay with P. aeruginosa PAO1, 64 µg/mL (≈ 43.7 µM).

`CCC(C)CCC(=O)N[C@H](CC(N)=O)C(=O)N[C@H](Cc1ccc(O)cc1)C(=O)N[C@H](Cc1c[nH]c2ccccc12)C(=O)N[C@H](CCCN)C(=O)N[C@@H](CCCN)C(=O)NCC(=O)N[C@H](CCCN)C(=O)N[C@@H](Cc1c[nH]c2ccccc12)C(=O)N[C@@H](C)C(=O)N[C@H](C(=O)NCC(=O)O)[C@@H](C)CC` (stereo partly drawn) [MeHex- Ala OH] ({Hexanoyl(4ξ-Me)}-[dN][dY][dW][dOrn][Orn]G[dOrn]WAIG-OH): the “E. coli MIC” value in the assay with E. Coli NCTC 12241 is 50 µg/mL.

`CCCC(=O)N[C@H](CO)C(=O)N[C@H](Cc1ccc(O)cc1)C(=O)N[C@H](Cc1c[nH]c2ccccc12)C(=O)N[C@H](CCCN)C(=O)N[C@@H](CCCN)C(=O)NCC(=O)N[C@H](CCCN)C(=O)N[C@@H](Cc1c[nH]c2ccccc12)C(=O)N[C@@H]1C(=O)N[C@@H]([C@@H](C)CC)C(=O)N[C@@H](CC(N)=O)C(=O)NCC(=O)NCC(=O)O[C@@H]1C` [Compound C4] (Butyryl-[dS][dY][dW][dOrn][Orn]G[dOrn]WTINGG; ester 9-C): the “Minimum inhibitory concentration (MIC)” value is 8 µg/mL (≈ 5.21 µM) in assay [1], 8 µg/mL (≈ 5.21 µM) in the assay on K. pneumoniae ATCC 11228, 4 µg/mL (≈ 2.61 µM) with A. baumannii ATCC 17978 and 8 µg/mL (≈ 5.21 µM) in the assay with P. aeruginosa PAO1.

For `CCC(C)CCC(=O)N[C@H](CC(N)=O)C(=O)N[C@H](Cc1ccc(O)cc1)C(=O)N[C@H](Cc1c[nH]c2ccccc12)C(=O)N[C@H](CCCN)C(=O)N[C@@H](CCCN)C(=O)NCC(=O)N[C@H](CCCN)C(=O)N[C@@H](Cc1c[nH]c2ccccc12)C(=O)N[C@H](C(=O)N[C@H](C(=O)NCC(N)=O)[C@@H](C)CC)[C@@H](C)O` (stereo partly drawn) [Und(9-Thr)-NH2] ({Hexanoyl(4ξ-Me)}-[dN][dY][dW][dOrn][Orn]G[dOrn]WTIG-NH2), the “E. coli MIC” value with E. coli and with E. Coli NCTC 12241 was 1.56 µg/mL in each case.

Regarding `C=CCOC(=O)NC[C@H](NC(=O)[C@H](Cc1c[nH]c2ccccc12)NC(=O)[C@@H](CCCN)NC(=O)CNC(=O)[C@H](CCCN)NC(=O)[C@@H](CCCN)NC(=O)[C@@H](Cc1c[nH]c2ccccc12)NC(=O)[C@@H](Cc1ccc(O)cc1)NC(=O)[C@@H](CC(N)=O)NC(=O)CCC(C)CC)C(=O)N[C@H](C(=O)NCC(=O)O)[C@@H](C)CC` (stereo partly drawn) [MeHex- Dap(Alloc) OH] ({Hexanoyl(4ξ-Me)}-[dN][dY][dW][dOrn][Orn]G[dOrn]W[Dap](Alloc)IG-OH), the “E. coli MIC” value in the assay on E. Coli NCTC 12241 was 1.6 µg/mL.

On to `CCCCCCCCCCCCCC(=O)N[C@H](CO)C(=O)N[C@H](Cc1ccc(O)cc1)C(=O)N[C@H](Cc1c[nH]c2ccccc12)C(=O)N[C@H](CCCN)C(=O)N[C@@H](CCCN)C(=O)NCC(=O)N[C@H](CCCN)C(=O)N[C@@H](Cc1c[nH]c2ccccc12)C(=O)N[C@@H]1C(=O)N[C@@H]([C@@H](C)CC)C(=O)N[C@@H](CC(N)=O)C(=O)NCC(=O)NCC(=O)O[C@@H]1C` [Compound C14] (Myristoyl-[dS][dY][dW][dOrn][Orn]G[dOrn]WTINGG; ester 9-C), for which the “Minimum inhibitory concentration (MIC)” value in assay [1] amounted to 8 µg/mL (≈ 4.78 µM); in the assay on K. pneumoniae ATCC 11228 it was 8 µg/mL (≈ 4.78 µM); in the assay on A. baumannii ATCC 17978, 4 µg/mL (≈ 2.39 µM); in the assay with P. aeruginosa PAO1, 8 µg/mL (≈ 4.78 µM).

Take `CCCCCCCCCC(=O)N[C@H](CO)C(=O)N[C@H](Cc1ccc(O)cc1)C(=O)N[C@H](Cc1c[nH]c2ccccc12)C(=O)N[C@H](CCCN)C(=O)N[C@@H](CCCN)C(=O)NCC(=O)N[C@H](CCCN)C(=O)N[C@@H](Cc1c[nH]c2ccccc12)C(=O)N[C@@H]1C(=O)N[C@@H]([C@@H](C)CC)C(=O)N[C@@H](CC(N)=O)C(=O)NCC(=O)NCC(=O)O[C@@H]1C` [Compound C10] (Decanoyl-[dS][dY][dW][dOrn][Orn]G[dOrn]WTINGG; ester 9-C): the “Minimum inhibitory concentration (MIC)” value in assay [1] is 1 to 2 µg/mL; in the assay with K. pneumoniae ATCC 11228 it was 1 µg/mL (≈ 0.618 µM); in the assay on A. baumannii ATCC 17978, 1 µg/mL (≈ 0.618 µM); in the assay on P. aeruginosa PAO1, 1 to 2 µg/mL.

In the case of `CCCCCCCCCCCCCCCC(=O)N[C@H](CO)C(=O)N[C@H](Cc1ccc(O)cc1)C(=O)N[C@H](Cc1c[nH]c2ccccc12)C(=O)N[C@H](CCCN)C(=O)N[C@@H](CCCN)C(=O)NCC(=O)N[C@H](CCCN)C(=O)N[C@@H](Cc1c[nH]c2ccccc12)C(=O)N[C@@H]1C(=O)N[C@@H]([C@@H](C)CC)C(=O)N[C@@H](CC(N)=O)C(=O)NCC(=O)NCC(=O)O[C@@H]1C` [Compound C16] (Palmitoyl-[dS][dY][dW][dOrn][Orn]G[dOrn]WTINGG; ester 9-C), the “Minimum inhibitory concentration (MIC)” value in assay [1] is 64 µg/mL (≈ 37.6 µM); in the assay with K. pneumoniae ATCC 11228, 32 µg/mL (≈ 18.8 µM); in the assay on A. baumannii ATCC 17978, 4 to 8 µg/mL; with P. aeruginosa PAO1 it was 64 µg/mL (≈ 37.6 µM).

As to `CCCCCCCC(=O)N[C@H](CC(N)=O)C(=O)N[C@H](Cc1ccc(O)cc1)C(=O)N[C@H](Cc1c[nH]c2ccccc12)C(=O)N[C@H](CCCN)C(=O)N[C@@H](CCCN)C(=O)NCC(=O)N[C@H](CCCN)C(=O)N[C@@H](Cc1c[nH]c2ccccc12)C(=O)N[C@@H](C)C(=O)N[C@H](C(=O)NCC(=O)O)[C@@H](C)CC` [Oct- Ala OH] (Octanoyl-[dN][dY][dW][dOrn][Orn]G[dOrn]WAIG-OH), the “E. coli MIC” value with E. Coli NCTC 12241 came out at 25 µg/mL.

Values taken from US20240140991A1, “ANTIBIOTIC NATURAL PRODUCT ANALOGUES” (THE QUEEN'S UNIVERSITY OF BELFAST, priority 2021, published 2024).
